Laboratory results from US10058538B2, “Compositions comprising substituted benzofuroquinolizine and α2-adrenergic agonists” (VETCARE OY, priority 2014, dated 2018).

Assays:
dogs [1] = conditions: dexmedetomidine 10 μg/kg IV, MK-467 250, 500 and 750 μg/kg, especially with higher doses; cited from earlier work
beagle dogs = experiment: Composite sedation score (0-20) in dogs, medetomidine with or without MK-467 IM, reversal with atipamezole (Example 2); assay type: in vivo, dog; conditions: FIG. 3
Description: Atipamezole (100 μg/kg IM) was administered at 30 min (arrow).
The study was designed as a prospective, randomized, experimental cross-over study.
Each dog (n=7) was treated twice with a 14-days washout period: • Medetomidine (20 μg/kg) at 0 min, followed by Atipamezole (100 μg/kg) at 30 min • Medetomidine (20 μg/kg)+MK-467 (400 μg/kg) at 0 min, followed by Atipamezole (100 μg/kg) at 30 min
Medetomidine and MK-467 were mixed in the same syringe and administered intramuscularly.
Sedation was scored by a veterinarian blinded for treatment with the following score:
Composite Sedation Score (0-20)
• 0 Standing • 1 Standing but staggers • 2 Sternal head up • 3 Sternal head down • 4 Lateral head down 2. […] Position of the Eye (0-2) • 0 Middle • 2 Turned down 4. Jaw and Tongue Relaxation (0-4) • 0 Normal, opens the jaws but resists manipulation of the tongue • 1 Bites jaws together • 2 Opens the jaws but strong resistance when tongue is pulled • 3 Slight resistance when tongue is pulled • 4 No resistance 5. Resistance to Positioning in Lateral Recumbency (0-3) • 0 Normal • 1 Turns back to sternal position • 2 Some resistance but stays in lateral recumbency • 3 No resistance or the position is already lateral 6. […]

dogs [2] = conditions: medetomidine 20 μg/kg IM or 10 μg/kg IV, compared with baseline values; cited from earlier work
[3] = by reduction in heart rate and cardiac output after medetomidine administration; cited from earlier work

Cc1cccc([C@H](C)c2c[nH]cn2)c1C [dexmedetomidine, (S)-4-[1-(2,3-Dimethylphenyl)ethyl]-3H-imidazole]
BIS-values (bispectral index) (dogs [1]): decreased

CCC1(c2cnc[nH]2)Cc2ccccc2C1 [atipamezole]
reversal of medetomidine induced sedation (beagle dogs; atipamezole 100 μg/kg IM at 30 min after medetomidine 20 μg/kg IM alone or with MK-467 400 μg/kg): reversed

Cc1cccc(C(C)c2cnc[nH]2)c1C (racemic) [medetomidine, (RS)-4-[1-(2,3-dimethylphenyl)ethyl]-3H-imidazole]
resedation after atipamezole reversal (beagle dogs; medetomidine 20 μg/kg IM alone or with MK-467 400 μg/kg in the same syringe, atipamezole 100 μg/kg IM at 30 min): resedation seen
heart rate (HR), mixed-venous partial pressure of oxygen (Pvo(2)) and cardiac index (CI) (dogs [2]): significantly lower
mean arterial blood pressure (MAP), systemic vascular resistance (SVR) and oxygen extraction ratio (ER) (dogs [2]): significantly higher
decrease of global Do2 (oxygen delivery) [3]: at least 50%
